Test results as given in US20060287345A1, “Substituted 4-phenyl-4-[1h-imidazol-2-yl]-piperidine derivatives as selective non-peptide delta opiod agonists with antidepressant and anxiolytic activity” (priority 2003, published 2006).
Where two headings read alike, the source gives them in different places. Each block holds one compound with its values, some of them ahead of it.

Key:
neonatal C57BL/6 mice = assay: Mouse neonatal ultrasonic vocalization test; type: in vivo; conditions: s.c., postnatal day 3, 30 min after injection
Description: (§1) Antidepressant- and anxiolytic like properties of the compounds were examined in mouse tail suspension test (TS), mouse forced swim test (FS) and mouse neonatal ultrasonic vocalization test (USV).
Anxiolytic compounds typically decrease the vocalizations in rat pups separated from their mother (Olivier et al., Eur. J. Pharmacol. 1998, 358, 117) More recently, this test has also been established in mice (Dirks et al., Pharmacol. Biochem. Behav. 2002, 72, 993).
Seventeen days pregnant C57BL/6 mice were obtained from Charles River (Sulzfeld, Germany). They were housed and maintained at a constant temperature of 22° C., under a 12:12 h reversed light/dark cycle (lights off at 6:00 h), with food and water ad libitum. Two times per day, cages were checked for newborn litters. Litter size was 5-8 pups/litter.
Ultrasonic vocalizatiors (USVs) were recorded in a sound attenuating, ventilated chamber at room temperature, detected at 60 kHz (range 50-70 kHz) by a bat recorder in combination with the UltraVox system (Noldus, The Netherlands). No filter was used in order to be able to record pup clicks.
Distress calls of neonatal mice were measured in neonatal C57BL/6 mice at postnatal day 3 during the early dark phase (between 8:00 and 12:00). Pups were weighed (body weight 2-3 g), followed by subcutaneous injection (10 ml/kg), and placed back into the nest. After 30 min, they were separated from the mother and placed into a beaker underneath the bat detector. The number of calls and the duration of calls were recorded over a period of 5 min.
(§2) Data were analyzed using the non-parametric, unadjusted Wilcoxon-Mann-Whitney rank sum test. Each dose was compared with vehicle.

NMRI mice = assay: Mouse tail suspension test; type: in vivo; conditions: s.c., immobility, 30 min after administration
C57BL/6 mice = assay: Mouse forced swim test; type: in vivo; conditions: s.c., immobility, treatment 30 min prior to test
Protocol: as §1
This test has been validated as test for antidepressant-like activity (Borsini and Meli, Psychopharmacology 1988, 94, 147).
Adult male C57BL/6 mice (body weight 22-24 g Charles River, Sulzfeld, Germany) were housed individually in IVC racks and maintained under a 12:12 h light/dark cycle (lights on at 6:00 b), with food and water ad libitum.
A clear glass beaker (10 cm in diameter, 25 cm high) was filled to a depth of 10 cm with water (25° C.). Mice were placed into the water for 6 min. Immobility during the first and the last 3 min were scored automatically using the Videotrack video tracking system (Viewpoint, France), which allows detection of individual pixel movements. Four animals were tested in parallel. Treatment was given 30 min prior to test (s.c., 10 ml/kg). The water was replaced after each animal.
as §2

[1] = biological target: T1, cloned human δ opioid receptor (Homo sapiens, UniProt P41143); assay: Radioligand binding, competitive inhibition of [3H]DPDPE
T1 construct: expressed in transfected cells; host or cells: C6 glioma cells (permanently transfected)
T1 sequence (P41143 whole entry): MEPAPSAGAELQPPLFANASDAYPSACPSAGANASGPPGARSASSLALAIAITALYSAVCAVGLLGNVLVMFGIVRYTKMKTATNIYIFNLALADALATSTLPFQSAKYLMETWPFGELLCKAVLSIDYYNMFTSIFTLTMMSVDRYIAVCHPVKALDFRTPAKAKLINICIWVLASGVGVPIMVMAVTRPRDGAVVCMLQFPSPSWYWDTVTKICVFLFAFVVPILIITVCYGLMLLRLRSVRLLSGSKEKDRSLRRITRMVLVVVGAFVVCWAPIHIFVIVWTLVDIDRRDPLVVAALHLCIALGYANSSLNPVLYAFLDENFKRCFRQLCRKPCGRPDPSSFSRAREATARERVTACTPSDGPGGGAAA

δ opioid receptor [2] = biological target: T2, δ opioid receptor (Homo sapiens, UniProt P41143); assay: [35S]GTPγS binding, delta agonism; type: biochemical
T2 construct: expressed in transfected cells; host or cells: C6 glioma cells (permanently transfected)
T2 sequence (P41143 whole entry): as above
Protocol: Second messenger signaling was measured on membrane preparations via stimulation of [^35S]GTPγS binding In this functional assay, agonistic and antagonistic properties of the compounds were investigated.
The assay mixtures contained 10 μg of membrane protein. An additional 10 μg/ml saponire was added to the diluted membranes as a detergent to maximize the [^35S]GTPγS penetration through the membranes.
For testing agonistic activity, 175 μl of diluted membranes was pre-incubated in the buffer described above together with 25 μl of buffer and 25 μl of varying concentrations of the compound in a total volume of 225 μl. For antagonistic activities, the 25 μl of the buffer addition was replaced with the reference agonist for stimulating the basal levels. […]
The amount of bound radioactivity on the filter unit was determined after filter drying and scintillant addition (Nicroscint-O; Packard) by liquid scintillation counting.
Basal [^35S]GTPγS binding was measured in absence of compounds. Stimulation by agonist was calculated as the percentage increase above basal levels. The sigmoid agonist concentration response curves for increases in [^35S]GTPγS binding and antagonist inhibition curves for inhibition of the reference agonist-stimulated [^35S]GTPγS binding were analyzed by non-linear regression using the GraphPad Prism program. […]

δ opioid receptor [3] = biological target: T2, δ opioid receptor; assay: Signal transport binding, delta antagonism; type: biochemical
[4] = biological target: cloned human μ opioid receptor (Homo sapiens, UniProt P35372); assay: Radioligand binding, competition with [3H]DAMGO; conditions: Table 8, CHO membranes, read-out: Agonist receptor binding (pIC50) mu (converted)
Sequence of cloned human μ opioid receptor (P35372 whole entry): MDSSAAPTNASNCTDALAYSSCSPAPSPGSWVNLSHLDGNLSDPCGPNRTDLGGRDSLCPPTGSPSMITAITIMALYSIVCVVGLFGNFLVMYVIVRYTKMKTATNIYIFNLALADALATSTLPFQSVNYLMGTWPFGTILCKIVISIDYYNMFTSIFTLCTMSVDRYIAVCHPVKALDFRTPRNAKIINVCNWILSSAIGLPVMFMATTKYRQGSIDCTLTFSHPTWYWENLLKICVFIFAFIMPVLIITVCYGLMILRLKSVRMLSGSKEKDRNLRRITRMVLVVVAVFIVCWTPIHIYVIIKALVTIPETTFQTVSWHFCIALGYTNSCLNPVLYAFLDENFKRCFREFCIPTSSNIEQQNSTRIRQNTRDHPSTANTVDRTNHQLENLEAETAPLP

[5] = Table 7, delta opioid receptor, read-out: pIC50 values for the delta opioid receptor agonist test (converted)

Structure (SMILES): CCOC(=O)N1CCC(c2ccccc2)(c2nccn2Cc2ccccc2)CC1 [Compound 1, ethyl 4-phenyl-4-[1-(phenylmethyl)-1H-imidazol-2-yl]-1-piperidinecarboxylate]
- Ultrasonic vocalization (LAD) (Lowest Active Dose tested) (neonatal C57BL/6 mice): 10 mg/kg s.c.
- Tail suspension LAD (Lowest Active Dose tested) (NMRI mice): 30 mg/kg s.c.
- Forced swim (LAD) (Lowest Active Dose tested) (C57BL/6 mice): 30 mg/kg s.c.

Structure (SMILES): O=C(c1ccccc1)N1CCC(c2ccccc2)(c2nccn2Cc2ccccc2)CC1 [Compound 2]
- Ultrasonic vocalization (LAD) (Lowest Active Dose tested) (neonatal C57BL/6 mice): 1 mg/kg s.c.
- Tail suspension LAD (Lowest Active Dose tested) (NMRI mice): 10 mg/kg s.c.

Structure (SMILES): CCOC(=O)N1CCC(c2ccccc2)(c2nccn2Cc2ccc(C(=O)OC)cc2)CC1 [Compound 3]
- melting point: 149.1 °C

Structure (SMILES): CCN/C(=N/C#N)N1CCC(c2ccccc2)(c2nccn2Cc2ccccc2)CC1 [Compound 4]
- IC50 [1]: 0.0501 µM
- melting point: 84.2 °C

Structure (SMILES): COC(=O)c1ccccc1NC(=O)N1CCC(c2ccccc2)(c2nccn2Cc2ccccc2)CC1 [Compound 7]
- IC50 [1]: 0.02 µM

- melting point: 251.6 °C
Structure (SMILES): CCOC(=O)N1CCC(c2ccccc2)(c2nccn2Cc2ccc(C(=O)O)cc2)CC1 [Compound 8]

- IC50 [1, 5]: 0.0631 µM
Structure (SMILES): O=C(Nc1ccccc1CO)N1CCC(c2ccccc2)(c2nccn2Cc2ccccc2)CC1 [Compound 10]

- IC50 [1, 5]: 0.0158 µM
Structure (SMILES): O=C(O)c1ccccc1NC(=O)N1CCC(c2ccccc2)(c2nccn2Cc2ccccc2)CC1 [Compound 11]

Structure (SMILES): CCOC(=O)c1ccc(C(C)n2ccnc2C2(c3ccccc3)CCN(C(=O)OCC)CC2)cc1 (centres unmarked) [Compound 19]
- IC50 (δ opioid receptor [2]; Table 8, [35S]GTPγS binding, membranes, read-out: Signal transport binding (pIC50) delta agonism GTPγS (converted)): 0.316 µM
- IC50 ([1]; Agonist receptor binding (pIC50) delta, Table 8, [3H]DPDPE 2 nM, C6 glioma cell membranes): 0.00631 µM
- IC50 (δ opioid receptor [3]; Table 8, against reference agonist DPDPE, read-out: Signal transport binding (pIC50) delta antag. (converted)): > 10 µM
- IC50 ([4]; [3H]DAMGO 1 nM): > 1 µM

Structure (SMILES): CCOC(=O)N1CCC(c2ccccc2)(c2nccn2C(C)c2ccccc2)CC1 (centres unmarked) [Compound 20]
- Ultrasonic vocalization (LAD) (Lowest Active Dose tested) (neonatal C57BL/6 mice): 30 mg/kg s.c.
- Tail suspension LAD (Lowest Active Dose tested) (NMRI mice): 30 mg/kg s.c.

- IC50 [1, 5]: 0.0501 µM
Structure (SMILES): CCOC(=O)N1CCC(c2ccccc2)(c2nccn2Cc2ccc3ccccc3c2)CC1 [Compound 22]

Structure (SMILES): O=C(OC1CCCCC1)N1CCC(c2ccccc2)(c2nccn2Cc2ccccc2)CC1 [Compound 28]
- IC50 [1]: 0.0158 µM

Structure (SMILES): O=C(C1CC1)N1CCC(c2ccccc2)(c2nccn2Cc2ccccc2)CC1 [Compound 36]
- IC50 [1]: 0.0501 µM

- IC50 [1, 5]: 0.0631 µM
Structure (SMILES): O=C(c1cc(C(F)(F)F)cc(C(F)(F)F)c1)N1CCC(c2ccccc2)(c2nccn2Cc2ccccc2)CC1 [Compound 42]

Structure (SMILES): CCOC(=O)CNC(=O)N1CCC(c2ccccc2)(c2nccn2Cc2ccccc2)CC1 [Compound 48]
- IC50 [1]: 0.0794 µM

Structure (SMILES): CCCCNC(=O)N1CCC(c2ccccc2)(c2nccn2Cc2ccccc2)CC1 [Compound 50]
- IC50 [1]: 0.0251 µM

Structure (SMILES): O=C(NC1CCCCC1)N1CCC(c2ccccc2)(c2nccn2Cc2ccccc2)CC1 [Compound 51]
- IC50 [1]: 0.0501 µM

- IC50 [1, 5]: 0.02 µM
Structure (SMILES): COC(=O)c1ccc(Cn2ccnc2C2(c3ccccc3)CCN(C(=O)Nc3ccccc3)CC2)cc1 [Compound 52]

- IC50 [1, 5]: 0.0316 µM
Structure (SMILES): O=C(Nc1ccccc1Cl)N1CCC(c2ccccc2)(c2nccn2Cc2ccccc2)CC1 [Compound 65]

Structure (SMILES): O=C(Nc1ccccc1Br)N1CCC(c2ccccc2)(c2nccn2Cc2ccccc2)CC1 [Compound 66]
- IC50 [1]: 0.0316 µM

Structure (SMILES): CCOc1ccccc1NC(=O)N1CCC(c2ccccc2)(c2nccn2Cc2ccccc2)CC1 [Compound 70]
- IC50 [1]: 0.0398 µM

Structure (SMILES): O=C(Nc1ccc([N+](=O)[O-])cc1)N1CCC(c2ccccc2)(c2nccn2Cc2ccccc2)CC1 [Compound 71]
- IC50 [1]: 0.0501 µM

Structure (SMILES): O=C(Nc1ccccc1Oc1ccccc1)N1CCC(c2ccccc2)(c2nccn2Cc2ccccc2)CC1 [Compound 75]
- IC50 [1]: 0.0398 µM

Structure (SMILES): CSc1ccccc1NC(=O)N1CCC(c2ccccc2)(c2nccn2Cc2ccccc2)CC1 [Compound 76]
- IC50 [1]: 0.0398 µM

- IC50 [1, 5]: 0.0126 µM
Structure (SMILES): COc1ccc(Cl)cc1NC(=O)N1CCC(c2ccccc2)(c2nccn2Cc2ccccc2)CC1 [Compound 78]

Structure (SMILES): O=C(NCc1ccccc1)N1CCC(c2ccccc2)(c2nccn2Cc2ccccc2)CC1 [Compound 80]
- IC50 [1]: 0.0794 µM

Structure (SMILES): O=C(Nc1ccc2ccccc2c1)N1CCC(c2ccccc2)(c2nccn2Cc2ccccc2)CC1 [Compound 81]
- IC50 [1]: 0.0631 µM

- IC50 [1, 5]: 0.0316 µM
Structure (SMILES): O=C(c1csc(-c2cccnc2)n1)N1CCC(c2ccccc2)(c2nccn2Cc2ccccc2)CC1 [Compound 84]

Structure (SMILES): O=C(Nc1ccccn1)N1CCC(c2ccccc2)(c2nccn2Cc2ccccc2)CC1 [Compound 87]
- IC50 [1]: 0.0501 µM

Structure (SMILES): O=S(=O)(Nc1ccccc1)N1CCC(c2ccccc2)(c2nccn2Cc2ccccc2)CC1 [Compound 98]
- IC50 (δ opioid receptor [2]): 0.794 µM
- IC50 [1]: 0.00631 µM
- IC50 (δ opioid receptor [3]): > 10 µM
- IC50 ([4]; [[…] 1 nM): 2.51 µM

Structure (SMILES): CCN(CC)C(=O)c1ccc(Cn2ccnc2C2(c3ccccc3)CCN(c3nc4ccccc4o3)CC2)cc1 [Compound 99]
- IC50 [1]: 0.0501 µM

Structure (SMILES): CC(c1ccccc1)n1ccnc1C1(c2ccccc2)CCN(c2nc3ccccc3o2)CC1 (centres unmarked) [Compound 101]
- IC50 [1]: 0.0158 µM

Structure (SMILES): COC(=O)c1ccc(Cn2ccnc2C2(c3ccccc3)CCN(c3nc4ccccc4s3)CC2)cc1 [Compound 102]
- IC50 ([1]; Table 8, [3H]DPDPE 2 nM, C6 glioma cell membranes, read-out: Agonist receptor binding (pIC50) delta (converted)): 0.00316 µM
- IC50 ([4]; [3H]DAMGO 1 nM): > 1 µM

Structure (SMILES): c1ccc(Cn2ccnc2C2(c3ccccc3)CCN(c3ncccn3)CC2)cc1 [Compound 103]
- IC50 [1]: 0.02 µM

Structure (SMILES): c1ccc(Cn2ccnc2C2(c3ccccc3)CCN(c3nccs3)CC2)cc1 [Compound 105]
- IC50 [1]: 0.0126 µM
